US12539337B2 (priority 2013, dated 2026)
“Also recorded” adds a separate entry of the source.

What was measured:
NMDARs = format: cell-based, rat; details: memantine alone; read-out: IC50 for blocking NMDARs
Protocol: Primary cerebrocortical cultures were made from E16 rat pups and grown on 12-mm glass coverslips. Briefly, cortices were dissected from 1 to 2 days old rats and enzymatically treated (papain, 200 U/ml; 30 minutes, 37° C.). After mechanical dissociation in minimum essential medium (MEM; Gibco; Grand Island, NY, USA), the cells were plated into culture flasks and grown at 37° C. in a humidified 5% CO2/95% air atmosphere.
Whole-cell voltage-clamp recordings were performed from neurons after 14 days in vitro. The extracellular solution contained: 135 mM NaCl, 2.5 mM KCl, 2 mM CaCl2, 0-0.01 mM MgCl2, 1 mM NaHCO3, 0.34 mM Na2HPO4, 0.44 mM KH2PO4, 20 mM glucose, 10 mM Hepes, pH 7.4. Patch electrodes with a final tip resistance of 4-7 MΩ, were filled with a solution containing (in mM): 120 mM CsCl, 20 mM tetraethylammonium chloride (TEA-Cl), 10 mM Hepes, 2.25 mM EGTA, 1 mM CaCl2, 2 mM MgCl2, 0.001 mM and phalloidin, pH 7.4. pCLAMP 10 software (Molecular Devices; Sunnyvale, CA, USA) was used for data acquisition and analysis. All recordings were performed using an Axopatch 200B amplifier (Molecular Devices; Sunnyvale, CA, USA) at room temperature with a holding potential of −70 mV. […]
To evaluate their pharmacological profile, the effects of Au-Mem on NMDAR-mediated currents were evaluated in cerebrocortical neurons using patch-clamp whole-cell recordings. […]

sNMDARs = test: Whole-cell patch-clamp recordings of spontaneous NMDAR-mediated sEPSCs in cerebrocortical neurons; format: cell-based, rat; details: free memantine at 10 μM
Protocol: Whole-cell voltage-clamp recordings were performed from neurons after 14 days in vitro. […] All recordings were performed using an Axopatch 200B amplifier (Molecular Devices; Sunnyvale, CA, USA) at room temperature with a holding potential of −70 mV. Currents were digitally sampled at 10-20 kHz and filtered at 2-5 kHz.
Currents were acquired using a Digidata 1322 interface and pClamp 10.1 software. All recordings were made at room temperature at a holding potential of −70 mV. The extracellular solution contained the following: 137 mM NaCl, 1 mM NaHCO3, 0.34 mM Na2HPO4, 5.36 mM KCl, 0.44 mM KH2PO4, 3 mM CaCl2, 5 mM HEPES, 22.2 mM glucose, 0.01 mM glycine, and 0.003 mM strychnine, pH adjusted to 7.2. […]
The spontaneous NMDAR-mediated sEPSCs are usually presented as bursts, with each burst consisting of multiple EPSCs. […] Then, the values for charge transfer of each NMDAR-mediated sEPSC starting from the peak of the first NMDAR-mediated sEPSC and continuing to the baseline were determined, which took about 2 seconds in the majority of analyzed sEPSCs. […] Additionally, the frequency and amplitude of NMDAR-mediated sEPSCs were calculated for each experimental condition during about 100 seconds of recording time. The mean amplitude was calculated by averaging the amplitude of the maximal NMDA-mediated current in each burst. […]

For `CC12CC3CC(C)(C1)CC(N)(C3)C2` [memantine, 3,5-dimethyladamantan-1-amine], the IC50 (NMDARs) was roughly 1 µM and the “effect on synaptic activity (sEPSCs)” value (sNMDARs) was “almost completely inhibit; also recorded: did block it”.
